Test results published in patent US20250282825A1, “NOVEL CYCLIC COMPOUNDS, METHOD FOR THEIR PREPARATION AND THE USE OF SAID CYCLIC COMPOUNDS IN COSMETIC PREPARATIONS” (priority 2020, published 2025).

Assays:
S. aureus N315 LugIEFGH = type: cell-based, Staphylococcus aureus; conditions: for recognized and transported by the lugdunin transporters LugIEFGH: derived from MIC ratio, FIG. 5
[1] = tested on: human primary keratinocytes; assay: LDH assay (lactate dehydrogenase release); type: cell-based; conditions: 3.1 μg/ml, 24 h, 37° C., keratinocytes from three donors, relative to Triton-X (100%)
Protocol: To verify the results, an LDH assay was performed using human primary keratinocytes from three different donors according to the manufacturer's instructions. This assay is based on the detection of the enzyme lactate dehydrogenase, which is released into the cell culture medium when the cell membrane is damaged, where it can then be detected. […] Subsequently, 50 μl of each cell culture supernatant was transferred to a 96well plate, mixed with 50 μl of LDH reagent and measured (according to manufacturer's instructions). […] DMSO served as a negative control (solvent control).

[2] = tested on: human primary keratinocytes; assay: WST-1 assay (cell viability/cytotoxicity); type: cell-based; conditions: 3.1 μg/ml, 6 h, 37° C., keratinocytes from three donors, versus DMSO solvent control
Protocol: To determine possible cytotoxicity, a WST-1 assay was first performed using human primary keratinocytes from three different donors according to the manufacturer's instructions. The colorimetric assay measures cell viability of cells and can therefore be used to determine cytotoxic compounds incubated with the cells. The greater the number of viable cells, the higher the activity of mitochondrial dehydrogenases and the greater the amount of dye formed in the assay. […] Cell culture supernatants were then removed, and WST1 reagent was added to the keratinocytes. […] DMSO served as a negative control (solvent control).

Molecule | formation of resistance (S. aureus N315 LugIEFGH; conclusion from MIC ratio) | recognized and transported by the lugdunin transporters LugIEFGH (S. aureus N315 LugIEFGH) | MIC ratio MIC(S. aureus LugIEFGH)/MIC(S. aureus Wt) (S. aureus N315 LugIEFGH; ratio close to 1 = no resistance increase by the transporters, lugdunin value is the median) | cytotoxic effect in LDH assay [1] | virus inhibition (SARS-CoV-2; A549 cells, SARS-CoV-2 MOI=1.0, concentration 3.7 μM) | antiviral activity relative to lugdunin (SARS-CoV-2; higher antiviral activity than lugdunin, from EC50 values) | EC50 (SARS-CoV-2; read-out: EC50 (SARS-CoV-2 antiviral activity), A549 cells, SARS-CoV-2 MOI=1.0) | cytotoxic effect in WST-1 assay [2]
CC(C)C[C@H]1NC(=O)[C@H](Cc2c[nH]c3ccccc23)NC(=O)[C@@H](C(C)C)NC(=O)[C@H]2NC(SC2(C)C)[C@H](C(C)C)NC(=O)[C@@H](C(C)C)NC(=O)[C@H](C(C)C)NC1=O [I.1] | no formation of resistance is to be expected | neither I.1 nor CCCP, is recognized and transported | 1.064 |  |  |  |  | 
CC(C)C[C@H]1NC(=O)[C@H](Cc2c[nH]c3ccccc23)NC(=O)[C@@H](C(C)C)NC(=O)[C@H]2NC(SC2(C)C)[C@H](C(C)C)NC(=O)[C@@H](Cc2c[nH]c3ccccc23)NC(=O)[C@H](C(C)C)NC1=O [I.3] |  |  |  | no significant cytotoxic effect | about 80% | approximately 9 fold | 2220 nM | no such cytotoxic effect
carbonyl cyanide-3-chrlophenylhydrazone [CCCP, reference compound] |  | neither I.1 nor CCCP, is recognized and transported |  |  |  |  |  | 
